Data on 4 molecules can be found in article PMC3175016 (Journal of applied toxicology : JAT, 2011).

Read-outs that look alike come from different tables or passages of the source. Marks after values point to notes of the source that are not given here.

The subject of data set [1] is male Fischer 344 rats. Conditions: ref Patel et al., 2008, cited from earlier work.
Data set [2] relates to male Fischer 344 rats. As to the kind of experiment: Kidney histology. Conditions: all doses evaluated, i.p., 24 h, vs corn oil. The class given is in vivo.
The subject of data set [3] is male Fischer 344 rats. In words: Six-hour urine protein content after a single i.p. dose. Conditions: i.p. in corn oil, mean ± SE, N = 3–4. In kind it is in vivo.
Data set [4] deals with male Fischer 344 rats. In words: Kidney weight 24 h after a single i.p. dose. The class given is in vivo. Conditions: i.p. in corn oil, mean ± SE, N = 3–4.
Data set [5] concerns male Fischer 344 rats. In words: Urine volume after a single i.p. dose. In kind it is in vivo. Conditions: for Twenty-four-hour urine volume: i.p. in corn oil, mean ± SE, N = 3–4.
For data set [6], the system named is male Fischer 344 rats. In words: Serum alanine aminotransferase. Conditions: 24 h; for serum alanine aminotransferase (ALT) activity: corn oil controls 36.0 ± 11.3. The class given is in vivo.
For data set [7], the system named is male Fischer 344 rats. In words: Blood urea nitrogen. In kind it is in vivo. Conditions: for Blood urea nitrogen: i.p. in corn oil, 24 h, mean ± SE, N = 3–4.
Data set [8] concerns male Fischer 344 rats. In words: Liver weight 24 h after a single i.p. dose. Conditions: i.p. in corn oil, mean ± SE, N = 3–4. In kind it is in vivo.
Data set [9] concerns male Fischer 344 rats. In words: Clinical observation 24 h after dosing. In kind it is in vivo, rat. Conditions: 0.6 mmol/kg i.p., 24 h after dosing (sluggish movements and low body temperatures).
Data set [10] relates to male Fischer 344 rats. In words: Liver histology. In kind it is in vivo. Conditions: 24 h.
[11] abbreviates: dose 0.2 (head mg/kg; text mmol/kg).
The mark [12] stands for this setting: dose 0.4 (head mg/kg; text mmol/kg).
[13] abbreviates: dose 0.6 (head mg/kg; text mmol/kg).
The mark [14] stands for this setting: dose 1.0 (head mg/kg; text mmol/kg).

In the case of `O=C1CSC(=O)N1c1cc(Cl)cc(Cl)c1` [DCPT, 3-(3,5-dichlorophenyl)-2,4-thiazolidinedione], the ALT values in the data set on male Fischer 344 rats [1] (0.2 mmol/kg) is 26.7 ± 6.6 SF units/ml; with male Fischer 344 rats [1] (0.4 mmol/kg), 231.5 ± 50.0 SF units/ml; in the data set with male Fischer 344 rats [1] (0.6 mmol/kg), 281.7 ± 103.0 SF units/ml; in the data set with male Fischer 344 rats [1] (1.0 mmol/kg), 506.9 ± 99.4 SF units/ml.
Turning to `O=C(O)CSC(=O)Nc1cc(Cl)cc(Cl)c1` [DCTA, [[[(3,5-dichlorophenyl)amino]carbonyl]thio]acetic acid], the “Kidney morphology” value with male Fischer 344 rats [2] is given as “did not exhibit obvious changes in kidney morphology”. Moreover, the results for the “Six-hour urine protein content” value in the data set on male Fischer 344 rats [3] (setting [11]), in the data set on male Fischer 344 rats [3] (setting [12]) and in the data set on male Fischer 344 rats [3] (setting [13]) were 2.9 ± 0.9^b mg, 2.5 ± 0.4^b mg and 2.5 ± 1.1^b mg, respectively. Also, the Kidney weight with male Fischer 344 rats [4] (setting [11]) is 0.40 ± 0.01^b g/ 100% BW; with male Fischer 344 rats [4] (setting [12]), 0.43 ± 0.01 *,^b,^c g/ 100% BW; in the data set on male Fischer 344 rats [4] (setting [13]) it was 0.45 ± 0.01 *,^c g/ 100% BW. In addition, the Twenty-four-hour urine volume is given as 12.5 ± 3.8^b ml with male Fischer 344 rats [5] (setting [11]), 13.1 ± 2.4^b ml in the data set with male Fischer 344 rats [5] (setting [12]) and 9.5 ± 5.0^b ml in the data set with male Fischer 344 rats [5] (setting [13]). Also, the “ALT elevation compared to corn oil controls” value in the data set with male Fischer 344 rats [6] (0.6 mmol/kg i.p.) was “about 2 fold”. For the same molecule, the “Change in serum ALT levels” value with male Fischer 344 rats [6] (0.2 and 0.4 mmol/kg i.p.) is recorded as “no changes were noted”. Besides, the “Increase in serum BUN concentrations” value with male Fischer 344 rats [7] (0.4 and 0.6 mmol/kg, compared to corn oil and the 0.2 mmol/kg dose) is “about 3 fold”. In addition, the Blood urea nitrogen is given as 21.0 ± 1.0^b mg/dl in the data set with male Fischer 344 rats [7] (setting [11]), 62.2 ± 11.2*,^c mg/dl in the data set on male Fischer 344 rats [7] (setting [12]) and 67.8 ± 17.9*,^c mg/dl in the data set with male Fischer 344 rats [7] (setting [13]). The Liver weight in the data set on male Fischer 344 rats [8] (setting [11]) is recorded as 3.58 ± 0.21^b g/100% BW; in the data set on male Fischer 344 rats [8] (setting [12]) it was 3.62 ± 0.05^b g/100% BW; in the data set with male Fischer 344 rats [8] (setting [13]), 3.46 ± 0.17^b g/100% BW. Further, the “Clinical appearance” value with male Fischer 344 rats [9] is listed as “appeared to be moribund”. Further, the “Liver morphology” value in the data set with male Fischer 344 rats [10] (0.6 mmol/kg i.p.) was “nuclear condensation was apparent in some hepatocytes”; in the data set with male Fischer 344 rats [10] (0.2 and 0.4 mmol/kg i.p.), “did not produce any significant changes”.
With `CC1SC(=O)N(c2cc(Cl)cc(Cl)c2)C1=O` (centres unmarked) [DPMT, 3-(3,5-dichlorophenyl)-5-methyl-2,4-thiazolidinedione], the “Kidney morphology” value in the data set on male Fischer 344 rats [2] is “did not exhibit obvious changes in kidney morphology”. Besides, the “Six-hour urine protein content” value in the data set with male Fischer 344 rats [3] (setting [11]) was 2.1 ± 0.7^a mg; in the data set with male Fischer 344 rats [3] (setting [12]), 1.6 ± 0.1^a mg; in the data set with male Fischer 344 rats [3] (setting [13]), 2.6 ± 0.8^a mg; with male Fischer 344 rats [3] (setting [14]) it was 2.5 ± 0.3^a mg. Besides, the Kidney weight in the data set with male Fischer 344 rats [4] (setting [11]) was 0.37 ± 0.01^a g/ 100% BW; with male Fischer 344 rats [4] (setting [12]), 0.38 ± 0.01^a g/ 100% BW; with male Fischer 344 rats [4] (setting [13]) it was 0.39 ± 0.01^a g/ 100% BW; in the data set on male Fischer 344 rats [4] (setting [14]), 0.41 ± 0.01^a g/ 100% BW. For the same molecule, in the data set with male Fischer 344 rats [5] (0.6 and 1.0 mmol/kg), the “Increase in urine volume” value is “about three-fold increase”. In addition, the Twenty-four-hour urine volume in the data set with male Fischer 344 rats [5] (setting [11]) was 6.5 ± 2.1^a ml; with male Fischer 344 rats [5] (setting [12]), 8.1 ± 1.7^a ml; in the data set with male Fischer 344 rats [5] (setting [13]), 11.6 ± 1.0*,^a ml; in the data set with male Fischer 344 rats [5] (setting [14]), 10.8 ± 1.3*,^a ml. Further, the “serum alanine aminotransferase (ALT) activity” value in the data set on male Fischer 344 rats [6] (0.6 mmol/kg i.p. in corn oil) is listed as 298.6 ± 176.1 Sigma-Frankel units/ml; with male Fischer 344 rats [6] (1.0 mmol/kg i.p. in corn oil), 327.3 ± 102.9 Sigma-Frankel units/ml. Besides, in the data set with male Fischer 344 rats [6] (0.6 and 1.0 mmol/kg i.p., vs two lower doses and corn oil), the “Change in serum ALT levels” value is “significant elevation in ALT concentrations”. The Blood urea nitrogen in the data set with male Fischer 344 rats [7] (setting [11]) was 19.6 ± 0.8^a mg/dl; in the data set with male Fischer 344 rats [7] (setting [12]) it was 24.6 ± 1.3^a mg/dl; in the data set with male Fischer 344 rats [7] (setting [13]) it was 19.8 ± 2.8^a mg/dl; in the data set on male Fischer 344 rats [7] (setting [14]), 20.0 ± 2.2^a mg/dl. The Liver weight in the data set with male Fischer 344 rats [8] (setting [11]) was 3.67 ± 0.31^a g/100% BW; with male Fischer 344 rats [8] (setting [12]) it was 3.81 ± 0.22^a g/100% BW; with male Fischer 344 rats [8] (setting [13]) it was 4.03 ± 0.27^a g/100% BW; in the data set with male Fischer 344 rats [8] (setting [14]), 4.10 ± 0.07^a g/100% BW. The “Liver morphology” value is recorded as “some damage near the centrilobular vein” with male Fischer 344 rats [10] (0.6 mmol/kg i.p.); “more damaged hepatocytes” with male Fischer 344 rats [10] (1.0 mmol/kg i.p.); “did not show any noticeable changes in liver morphology” in the data set with male Fischer 344 rats [10] (0.2 and 0.4 mmol/kg i.p.).
`O=C1CSC(=O)N1c1ccccc1` [PTZD, 3-phenyl-2,4-thiazolidinedione]: the “Kidney morphology” value with male Fischer 344 rats [2] was “dilation of distal tubules and collecting tubules”. The “Six-hour urine protein content” value with male Fischer 344 rats [3] (setting [11]) was 2.1 ± 0.5^d mg; in the data set on male Fischer 344 rats [3] (setting [12]), 2.1 ± 0.2^d mg; with male Fischer 344 rats [3] (setting [13]) it was 3.4 ± 0.9^d mg; in the data set with male Fischer 344 rats [3] (setting [14]), 2.3 ± 0.6^d mg. Moreover, the Kidney weight with male Fischer 344 rats [4] (setting [11]) is reported as 0.36 ± 0.01^d g/ 100% BW; in the data set with male Fischer 344 rats [4] (setting [12]), 0.40 ± 0.00*,^e g/ 100% BW; in the data set on male Fischer 344 rats [4] (setting [13]) it was 0.41 ± 0.01*,^e g/ 100% BW; with male Fischer 344 rats [4] (setting [14]), 0.47 ± 0.01 *,^f g/ 100% BW. The Twenty-four-hour urine volume in the data set with male Fischer 344 rats [5] (setting [11]) is 6.1 ± 1.7^d ml; in the data set with male Fischer 344 rats [5] (setting [12]), 11.5 ± 3.2^d ml; with male Fischer 344 rats [5] (setting [13]), 12.5 ± 2.4^d ml; in the data set with male Fischer 344 rats [5] (setting [14]) it was 22.6 ± 0.4*,^e ml. Moreover, in the data set on male Fischer 344 rats [6] (0.2 mmol/kg i.p., vs corn oil), the “Change in serum ALT levels” value is given as “did not produce a significant change”. Besides, the “ALT elevation compared to corn oil controls” value is “approximately 7 fold” with male Fischer 344 rats [6] (0.4 mmol/kg i.p.), roughly 26 fold in the data set on male Fischer 344 rats [6] (0.6 mmol/kg i.p.) and roughly 33 fold with male Fischer 344 rats [6] (1.0 mmol/kg i.p.). Besides, the “serum alanine aminotransferase (ALT) activity” value in the data set with male Fischer 344 rats [6] (1.0 mmol/kg i.p. in corn oil) came out at 1196.2 ± 133.6 Sigma-Frankel units/ml. The Blood urea nitrogen in the data set with male Fischer 344 rats [7] (setting [11]) is 24.8 ± 1.9^d mg/dl; with male Fischer 344 rats [7] (setting [12]), 24.1 ± 0.9^d mg/dl; in the data set on male Fischer 344 rats [7] (setting [13]), 28.6 ± 2.0*,^d mg/dl; in the data set with male Fischer 344 rats [7] (setting [14]) it was 31.3 ± 2.4*,^d mg/dl. In addition, the Liver weight in the data set with male Fischer 344 rats [8] (setting [11]) is on record as 3.69 ± 0.25^e g/100% BW; in the data set with male Fischer 344 rats [8] (setting [12]), 3.68 ± 0.18^e g/100% BW; in the data set on male Fischer 344 rats [8] (setting [13]), 4.08 ± 0.08^e g/100% BW; with male Fischer 344 rats [8] (setting [14]), 4.24 ± 0.06*,^e g/100% BW. For the same molecule, the “Liver morphology” value is “did not show any signs of hepatic damage” in the data set with male Fischer 344 rats [10] (0.2 mmol/kg i.p.); “some damage with granular and irregularly stained cytoplasm and indistinct nuclei” with male Fischer 344 rats [10] (0.4 mmol/kg i.p.); “larger necrotic lesions were present and an acute inflammatory response occurred” in the data set on male Fischer 344 rats [10] (1.0 mmol/kg i.p.).
